According to ChEMBL document CHEMBL5380790 (J Med Chem, 2023):
Converted amounts (≈) assume the structure as drawn. The source made the active and inactive calls. The rule behind the calls is not given here.

Assays:
[1] = Metabolic stability in human hepatocytes assessed as intrinsic clearance measured per million cells; type: ADME, cell-based, Hepatocyte; conditions: read-out: CLH
[2] = target: Platelet-derived growth factor receptor beta (Homo sapiens, UniProt P09619); assay: Inhibition of PDGFRB (unknown origin) at 1 uM using 33P-ATP as substrate incubated for 120 mins by radiometric kinase assay
[3] = Oral bioavailability in CD-1 mouse at 10 mg/kg and measured upto 24 hrs; type: ADME, organism-based; conditions: in vivo
[4] = Plasma clearance in Cynomolgus monkey at 0.2 mg/kg, iv and measured upto 24 hrs; type: ADME, organism-based, Macaca fascicularis
[5] = Apparent passive permeability of compound in human Caco-2 cells at 1 uM and measured after 2 hrs by LC-MS/MS analysis; type: ADME, cell-based
GIST430 = type: functional, cell-based; conditions: Homo sapiens, dose 10.0 µM
[6] = Half life in Han Wistar rat at 0.2 mg/kg, iv and measured upto 24 hrs; type: ADME, organism-based; conditions: in vivo
[7] = tested on: Mast/stem cell growth factor receptor Kit (Homo sapiens), P10721 [V559D]; assay: Inhibition of recombinant human KIT V559D mutant in exon 11 using polyGT and ATP as substrate preincubated for 20 mins followed by substrate addition and measured after 240 mins by FRET assay; conditions: time 260.0 min
[8] = tested on: Mast/stem cell growth factor receptor Kit (Homo sapiens), P10721 [V560G]; assay: Inhibition of recombinant human KIT V560G mutant in exon 11 using polyGT and ATP as substrate preincubated for 20 mins followed by substrate addition and measured after 240 mins by FRET assay; conditions: time 260.0 min
[9] = target: T1, Receptor-type tyrosine-protein kinase FLT3 (Homo sapiens, UniProt P36888); assay: Inhibition of FLT3 (unknown origin) using 33P-ATP as substrate incubated for 120 mins by radiometric kinase assay
T1 sequence (P36888 whole entry): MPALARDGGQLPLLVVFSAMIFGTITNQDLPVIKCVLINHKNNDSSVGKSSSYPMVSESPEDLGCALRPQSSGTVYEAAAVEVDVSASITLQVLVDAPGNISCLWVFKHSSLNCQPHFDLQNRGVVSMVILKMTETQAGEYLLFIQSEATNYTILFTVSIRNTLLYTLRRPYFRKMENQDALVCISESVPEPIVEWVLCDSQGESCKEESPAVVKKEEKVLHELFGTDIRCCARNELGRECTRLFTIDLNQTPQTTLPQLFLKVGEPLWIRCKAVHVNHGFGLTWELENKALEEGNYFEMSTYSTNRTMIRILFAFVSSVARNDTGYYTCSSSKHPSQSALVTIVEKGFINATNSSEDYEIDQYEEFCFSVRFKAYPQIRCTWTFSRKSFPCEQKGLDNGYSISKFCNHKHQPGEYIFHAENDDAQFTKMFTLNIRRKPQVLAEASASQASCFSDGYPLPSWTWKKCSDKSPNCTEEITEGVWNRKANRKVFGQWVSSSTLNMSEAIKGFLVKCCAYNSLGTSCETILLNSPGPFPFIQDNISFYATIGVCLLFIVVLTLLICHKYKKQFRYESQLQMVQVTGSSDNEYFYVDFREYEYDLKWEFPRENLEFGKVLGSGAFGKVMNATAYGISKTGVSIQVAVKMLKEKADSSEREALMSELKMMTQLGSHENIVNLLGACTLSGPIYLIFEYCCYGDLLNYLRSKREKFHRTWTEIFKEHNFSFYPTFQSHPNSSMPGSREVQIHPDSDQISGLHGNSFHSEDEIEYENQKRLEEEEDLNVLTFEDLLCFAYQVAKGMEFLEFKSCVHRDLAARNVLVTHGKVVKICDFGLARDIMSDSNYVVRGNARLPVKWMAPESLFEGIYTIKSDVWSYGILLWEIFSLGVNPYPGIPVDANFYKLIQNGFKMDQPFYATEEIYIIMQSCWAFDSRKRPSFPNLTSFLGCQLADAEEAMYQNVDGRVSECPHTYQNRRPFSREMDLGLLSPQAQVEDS

[10] = Volume of distribution at steady state in Beagle dog at 0.2 mg/kg, iv and measured upto 24 hrs; type: ADME, organism-based, Canis lupus familiaris; conditions: in vivo, read-out: Vdss
[11] = Dissociation constant, pKa of the compound; type: physicochemical
[12] = tested on: Mast/stem cell growth factor receptor Kit (Homo sapiens), P10721 [V559A]; assay: Inhibition of recombinant human KIT V559A mutant in exon 11 using polyGT and ATP as substrate preincubated for 20 mins followed by substrate addition and measured after 240 mins by FRET assay; conditions: time 260.0 min
[13] = Half life in Cynomolgus monkey at 0.2 mg/kg, iv and measured upto 24 hrs; type: ADME, organism-based, Macaca fascicularis; conditions: in vivo
[14] = target: T2, Platelet-derived growth factor receptor alpha (Homo sapiens, UniProt P16234); assay: Inhibition of PDGFRA (unknown origin) at 1 uM using 33P-ATP as substrate incubated for 120 mins by radiometric kinase assay
[15] = Octanol-water distribution coefficient, logD of the compound at pH 7.4; type: physicochemical
[16] = target: Mast/stem cell growth factor receptor Kit (Homo sapiens, UniProt P10721, DELTA560/V654A); type: cell-based, GIST-430/654
[17] = Plasma clearance in CD-1 mouse at 0.2 mg/kg, iv and measured upto 24 hrs; type: ADME, organism-based
[18] = Plasma clearance in Beagle dog at 0.2 mg/kg, iv and measured upto 24 hrs; type: ADME, organism-based, Canis lupus familiaris
[19] = Genotoxicity in Salmonella typhimurium by Ames test; type: toxicity; conditions: salmonella enterica subsp. enterica serovar typhimurium
[20] = Efflux ratio of apparent permeability from basolateral to apical side over apical to basolateral side in human Caco-2 cells at 1 uM and measured after 2 hrs by LC-MS/MS analysis; type: ADME, cell-based
[21] = target: Macrophage colony-stimulating factor 1 receptor (Homo sapiens, UniProt P07333); assay: Inhibition of CSF1R (unknown origin) using 33P-ATP as substrate incubated for 120 mins by radiometric kinase assay
[22] = target: T2, Platelet-derived growth factor receptor alpha; assay: Inhibition of PDGFRA (unknown origin) using 33P-ATP as substrate incubated for 120 mins by radiometric kinase assay
[23] = tested on: Mast/stem cell growth factor receptor Kit (Homo sapiens), P10721 [T670I]; assay: Inhibition of recombinant human KIT T670I mutant in exon 14 using polyGT and ATP as substrate preincubated for 20 mins followed by substrate addition and measured after 240 mins by FRET assay; conditions: time 260.0 min
[24] = Half life in CD-1 mouse at 0.2 mg/kg, iv and measured upto 24 hrs; type: ADME, organism-based; conditions: in vivo
[25] = Volume of distribution at steady state in Cynomolgus monkey at 0.2 mg/kg, iv and measured upto 24 hrs; type: ADME, organism-based, Macaca fascicularis; conditions: in vivo, read-out: Vdss
[26] = target: Mast/stem cell growth factor receptor Kit (Homo sapiens, UniProt P10721); assay: Binding affinity to wild type human KIT in human HEK293 cells at 1 uM by NanoBRET assay; type: cell-based
[27] = Solubility of compound in FaSSIF at pH 6.5; type: physicochemical
[28] = target: Mast/stem cell growth factor receptor Kit (Homo sapiens, UniProt P10721, N822K); assay: Inhibition of KIT N822K mutant autophosphorylation in human Kasumi 1 cells harboring KIT N822K mutation in exon 17 incubated for 45 mins by Luminex-based bead assay; type: cell-based
Sequence of Mast/stem cell growth factor receptor Kit (Homo sapiens, UniProt P10721, N822K) (P10721 26-976 N822K limits assumed): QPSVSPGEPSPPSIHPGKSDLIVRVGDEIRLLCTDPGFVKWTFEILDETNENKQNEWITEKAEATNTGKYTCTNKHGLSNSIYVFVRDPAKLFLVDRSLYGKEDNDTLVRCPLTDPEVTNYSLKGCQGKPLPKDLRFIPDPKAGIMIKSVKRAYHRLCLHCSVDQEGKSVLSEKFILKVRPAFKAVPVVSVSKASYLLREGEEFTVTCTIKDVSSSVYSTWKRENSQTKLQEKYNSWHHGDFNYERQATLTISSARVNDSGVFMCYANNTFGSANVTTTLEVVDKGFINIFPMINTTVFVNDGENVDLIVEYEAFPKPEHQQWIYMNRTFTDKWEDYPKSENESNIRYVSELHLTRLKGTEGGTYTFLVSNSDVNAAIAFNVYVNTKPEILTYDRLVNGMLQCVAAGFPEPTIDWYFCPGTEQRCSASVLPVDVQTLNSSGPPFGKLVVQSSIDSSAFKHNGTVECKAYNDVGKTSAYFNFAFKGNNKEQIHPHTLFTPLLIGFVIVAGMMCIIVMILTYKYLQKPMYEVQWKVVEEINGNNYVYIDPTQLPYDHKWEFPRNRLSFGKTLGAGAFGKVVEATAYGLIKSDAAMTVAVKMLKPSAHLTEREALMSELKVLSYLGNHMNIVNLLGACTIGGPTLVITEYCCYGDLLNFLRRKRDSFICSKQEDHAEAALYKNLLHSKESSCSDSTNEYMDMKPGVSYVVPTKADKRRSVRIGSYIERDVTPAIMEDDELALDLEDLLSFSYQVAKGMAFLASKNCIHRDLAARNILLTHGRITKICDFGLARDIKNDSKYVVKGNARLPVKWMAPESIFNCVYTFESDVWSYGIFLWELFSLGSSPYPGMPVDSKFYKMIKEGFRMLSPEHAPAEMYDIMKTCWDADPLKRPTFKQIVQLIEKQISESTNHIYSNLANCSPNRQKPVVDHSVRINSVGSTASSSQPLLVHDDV

T2 sequence (P16234 whole entry): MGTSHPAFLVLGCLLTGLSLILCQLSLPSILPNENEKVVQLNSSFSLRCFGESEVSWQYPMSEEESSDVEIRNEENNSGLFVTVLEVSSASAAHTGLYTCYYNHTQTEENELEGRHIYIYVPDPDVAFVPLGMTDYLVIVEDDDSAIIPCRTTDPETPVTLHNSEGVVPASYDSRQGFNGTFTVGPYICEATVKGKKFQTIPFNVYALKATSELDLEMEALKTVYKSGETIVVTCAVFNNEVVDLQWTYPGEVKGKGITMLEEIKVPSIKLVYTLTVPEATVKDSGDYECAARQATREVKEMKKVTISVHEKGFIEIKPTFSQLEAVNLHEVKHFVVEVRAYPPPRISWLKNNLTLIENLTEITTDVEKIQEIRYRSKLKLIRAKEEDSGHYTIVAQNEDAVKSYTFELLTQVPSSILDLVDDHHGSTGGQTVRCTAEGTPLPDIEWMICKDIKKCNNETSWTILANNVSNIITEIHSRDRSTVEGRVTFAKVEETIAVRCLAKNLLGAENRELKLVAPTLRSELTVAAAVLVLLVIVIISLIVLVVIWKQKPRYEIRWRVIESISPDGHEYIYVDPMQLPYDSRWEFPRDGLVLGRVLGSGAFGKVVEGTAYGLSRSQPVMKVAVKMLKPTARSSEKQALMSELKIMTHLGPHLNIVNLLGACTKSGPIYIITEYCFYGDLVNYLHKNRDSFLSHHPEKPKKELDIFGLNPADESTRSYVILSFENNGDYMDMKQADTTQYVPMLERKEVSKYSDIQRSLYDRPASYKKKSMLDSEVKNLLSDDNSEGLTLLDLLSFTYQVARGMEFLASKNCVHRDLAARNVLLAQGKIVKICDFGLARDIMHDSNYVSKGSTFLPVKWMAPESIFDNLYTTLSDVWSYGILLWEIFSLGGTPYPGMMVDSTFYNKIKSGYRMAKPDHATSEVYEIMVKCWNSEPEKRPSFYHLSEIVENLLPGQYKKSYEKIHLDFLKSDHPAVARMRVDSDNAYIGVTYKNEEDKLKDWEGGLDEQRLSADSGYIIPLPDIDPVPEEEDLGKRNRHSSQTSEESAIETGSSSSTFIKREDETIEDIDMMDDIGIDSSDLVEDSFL
Sequence of Macrophage colony-stimulating factor 1 receptor (P07333 whole entry): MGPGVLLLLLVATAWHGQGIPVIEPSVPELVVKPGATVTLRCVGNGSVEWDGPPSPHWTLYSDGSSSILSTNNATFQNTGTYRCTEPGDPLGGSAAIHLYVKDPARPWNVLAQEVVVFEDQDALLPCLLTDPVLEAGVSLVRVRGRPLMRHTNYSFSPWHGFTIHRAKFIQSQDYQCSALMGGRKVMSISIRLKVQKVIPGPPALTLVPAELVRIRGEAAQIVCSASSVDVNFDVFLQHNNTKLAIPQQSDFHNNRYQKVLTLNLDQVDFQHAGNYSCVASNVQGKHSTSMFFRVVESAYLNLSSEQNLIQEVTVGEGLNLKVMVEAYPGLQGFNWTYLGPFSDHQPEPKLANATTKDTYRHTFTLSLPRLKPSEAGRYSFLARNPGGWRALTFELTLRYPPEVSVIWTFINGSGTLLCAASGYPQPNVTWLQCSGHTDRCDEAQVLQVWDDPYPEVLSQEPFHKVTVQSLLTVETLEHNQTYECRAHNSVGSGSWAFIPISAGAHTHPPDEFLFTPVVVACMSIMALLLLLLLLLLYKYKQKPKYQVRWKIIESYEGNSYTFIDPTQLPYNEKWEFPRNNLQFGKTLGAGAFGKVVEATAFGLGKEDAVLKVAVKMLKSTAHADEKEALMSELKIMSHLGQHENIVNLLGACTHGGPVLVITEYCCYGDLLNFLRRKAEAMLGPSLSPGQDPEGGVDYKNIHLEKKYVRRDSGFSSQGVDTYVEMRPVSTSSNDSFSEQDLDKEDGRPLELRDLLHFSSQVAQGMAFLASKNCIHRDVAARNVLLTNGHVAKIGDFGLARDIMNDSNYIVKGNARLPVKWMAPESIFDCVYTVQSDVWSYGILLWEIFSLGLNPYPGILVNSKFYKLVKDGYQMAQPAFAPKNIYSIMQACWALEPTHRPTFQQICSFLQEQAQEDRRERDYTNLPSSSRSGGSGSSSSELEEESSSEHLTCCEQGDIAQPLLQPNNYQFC
Sequence of Mast/stem cell growth factor receptor Kit (Homo sapiens), P10721 [T670I] (P10721 whole entry T670I): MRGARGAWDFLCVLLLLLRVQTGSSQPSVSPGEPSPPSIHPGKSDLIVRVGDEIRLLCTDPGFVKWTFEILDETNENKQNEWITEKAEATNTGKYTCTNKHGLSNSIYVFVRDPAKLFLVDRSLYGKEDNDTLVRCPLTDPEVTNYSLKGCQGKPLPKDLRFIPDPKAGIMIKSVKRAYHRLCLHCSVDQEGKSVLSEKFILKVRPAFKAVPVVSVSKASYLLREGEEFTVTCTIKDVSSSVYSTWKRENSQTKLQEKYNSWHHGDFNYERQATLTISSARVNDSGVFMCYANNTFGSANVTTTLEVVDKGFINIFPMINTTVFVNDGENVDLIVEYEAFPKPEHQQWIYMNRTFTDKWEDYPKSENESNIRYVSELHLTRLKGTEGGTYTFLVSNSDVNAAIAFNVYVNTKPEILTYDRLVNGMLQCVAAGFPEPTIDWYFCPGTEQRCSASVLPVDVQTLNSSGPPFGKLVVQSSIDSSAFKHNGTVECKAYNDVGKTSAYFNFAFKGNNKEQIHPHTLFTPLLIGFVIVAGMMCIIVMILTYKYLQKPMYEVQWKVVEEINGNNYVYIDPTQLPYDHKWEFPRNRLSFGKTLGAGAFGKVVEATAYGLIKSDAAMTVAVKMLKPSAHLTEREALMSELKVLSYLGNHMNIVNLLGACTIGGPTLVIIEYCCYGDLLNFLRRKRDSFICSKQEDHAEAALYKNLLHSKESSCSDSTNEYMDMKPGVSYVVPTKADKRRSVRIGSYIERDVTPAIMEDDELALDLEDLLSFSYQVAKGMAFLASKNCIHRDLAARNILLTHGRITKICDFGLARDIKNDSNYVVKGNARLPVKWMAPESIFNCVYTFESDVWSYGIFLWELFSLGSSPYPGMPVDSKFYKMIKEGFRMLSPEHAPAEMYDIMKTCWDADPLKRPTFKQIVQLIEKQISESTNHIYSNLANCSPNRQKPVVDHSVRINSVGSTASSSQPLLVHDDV
Sequence of Mast/stem cell growth factor receptor Kit (Homo sapiens, UniProt P10721, DELTA560/V654A) (P10721 whole entry, looked up, stated change not applied): as the sequence (P10721 whole entry T670I) above, with I670T counted along it
Sequence of Mast/stem cell growth factor receptor Kit (Homo sapiens, UniProt P10721) (P10721 whole entry): as the sequence (P10721 whole entry T670I) above, with I670T counted along it
Sequence of Mast/stem cell growth factor receptor Kit (Homo sapiens), P10721 [V560G] (P10721 whole entry V560G): as the sequence (P10721 whole entry T670I) above, with V560G, I670T counted along it
Sequence of Mast/stem cell growth factor receptor Kit (Homo sapiens), P10721 [V559D] (P10721 whole entry V559D): as the sequence (P10721 whole entry T670I) above, with V559D, I670T counted along it
Sequence of Mast/stem cell growth factor receptor Kit (Homo sapiens), P10721 [V559A] (P10721 whole entry V559A): as the sequence (P10721 whole entry T670I) above, with V559A, I670T counted along it

- hepatocyte CLint [1]: 21 µL/min/1e6 cells
- inhibition [2]: > 80%
- bioavailability [3]: 46%
- clearance [4]: 36.7 mL/min/kg
- Papp at 2 h, 1 µM [5]: 5.7 ×10⁻⁶ cm/s
- half-life [6]: 6.8 h
- inhibition [7]: Active
- inhibition [8]: Active
- IC50 [9]: 141 nM
- Vd [10]: 34.6 L/kg
- pKa [11]: 9.7
- inhibition [12]: Active
- half-life [13]: 4.4 h
- inhibition [14]: > 80%
- logD [15]: 2.6
- IC50 [16]: 48 nM
- clearance [17]: 18.3 mL/min/kg
- clearance [18]: 36.7 mL/min/kg
- efflux ratio at 2 h, 1 µM [20]: 14
- IC50 [21]: 5.5 nM
- IC50 [22]: 50 nM
- inhibition [23]: inactive
- half-life [24]: 6.9 h
- Vd [25]: 12.4 L/kg
- Activity [26]: 65%
- solubility [27]: 374 µg/mL (≈ 735 µM)
- IC50 [28]: 4 nM
Compound: Cn1cc(-c2ccc(CNc3cc(-c4cnc5cc(OCCCN6CCCC6)ccn45)ncn3)cc2)cn1 [IDRX-42]
- Activity (GIST430): inactive
- Activity [19]: Non-Toxic
